Values joined by “and” are separate entries in the source; they are usually repeats but may differ in a detail not shown here. Equal entries are not always repeated.
What was measured:
Type in all cases: cell-based
[1] = tested on: MCF-7 human breast cancer cell lines; assay: in vitro anti-cancer test; settings: water soluble form, 4 to 0.008 mg/mL
Protocol: Biological activity of compound 4 (water soluble form) as anticancer in human breast cancer was evaluated according to (Kumar et al. 2014). Roswell Park Memorial Institute (RPMI)-1640 medium (Sigma, USA) were prepared according to manufacturer's guidelines and supplemented fetal bovine serum (10%). To avoid a microbial contamination, a streptomycin and penicillin were added to RPMI-1640. Several concentrations ranging from 4 to 0.008 mg/mL of compound 4 were tested.

[2] = tested on: Neisseria meningitides ATCC 1302; assay: disk diffusion assay, inhibition zone; settings: N. meningitides
[3] = tested on: Penicillum chrysogenum AUMC 9476; assay: disk diffusion assay, inhibition zone; settings: P. chrysoginum; 4 mg/disk; soluble water compound 4
Protocol: (§1) To evaluate antimicrobial activity of the compound 4, synthesized in our laboratory as novel anti-bacterial and anti-fungal agents, the inhibition zone diameter (mm) and the minimal inhibitory concentration were determined according to (Andrews 2001; Hudzicki 2009). The test carried out on several clinical microorganisms included Gram positive bacteria (Staphylococcus aureus ATCC and Streptococcus mutans ATCC 35668), Gram negative bacteria (Escherichia coli ATCC 25922, Salmonella typhimurium ATCC 14028 and Neisseria meningitides ATCC 1302); yeasts (Candid albicans ATCC 60193, Cryptococcus neoformans Wild strain and Candida parapsilosus ATCC 22019) and molds (Aspergillus fumigatus AUMC 8794, Penicillum chrysogenum AUMC 9476 and Fusarium sp.)
(§2) The clinical microorganisms were cultivated at least three times on suitable culture medium and incubating conditions before susceptibility test. The concentration of microbial inoculation suspensions in sterile sodium chloride solution (0.89%) were adjusted to 0.65 at 620 nm by spectrophotometer. […]
(§3) After that, the disks were dried at 25° C. under sterile conditions by safety biological cabinet. A Mueller-Hinton agar (MHA) (Scharlau Microbiogy, Spain) and a potato dextrose agar (PDA) (Scharlau, Spain) were used to perform antibacterial and antifungal test respectively. The media were prepared according to manufacturer's guidelines. To prepare one liter of MHA and one liter of PDA, 21 grams of MHA and 39 grams of PDA were dissolved in one liter of sterile distilled water, followed by sterilization at 121° C. for 15 minutes by an autoclave (HL-321, Taiwan). The sterilized media were poured in sterile plastic Petri dishes at 50° C. The plates were allowed to let the medium solidify at room temperature. 0.1 ml of microbial inoculation suspensions were spread on dried surface of medium and were kept at 25° C. for 5-10 minutes. The compound 4 and standard antimicrobial drugs discs (Table 1) were dispensed on the surface of inoculated media. The tested bacteria and fungi were incubated at 37±1° C. for 19-22 hours and at 25±1 for 48-72 hours respectively. After the incubation, the diameter of inhibition zone (millimeter) resulting from the biological activity of compound were recorded.

[4] = tested on: Aspergillus fumigatus AUMC 8794; assay: disk diffusion assay, inhibition zone; settings: A. fumigatus; 4 mg/disk; soluble water compound 4
Protocol: as §1, §2, §3

[5] = tested on: Salmonella typhimurium ATCC 14028; assay: disk diffusion assay, inhibition zone; settings: Sa. typhimurium; 4 mg/disk; soluble water compound 4
Protocol: as §1, §2, §3

[6] = tested on: Cryptococcus neoformans Wild strain; assay: disk diffusion assay, inhibition zone; settings: C. neoformasn; 4 mg/disk; soluble water compound 4
Protocol: as §1, §2, §3

Fusarium sp. = assay: disk diffusion assay, inhibition zone; settings: Fusarium sp.; 4 mg/disk; soluble water compound 4
Protocol: as §1, §2, §3

[7] = tested on: Escherichia coli ATCC 25922; assay: disk diffusion assay, inhibition zone; settings: E. coli; 4 mg/disk; soluble water compound 4
Protocol: as §1, §2, §3

[8] = tested on: Staphylococcus aureus ATCC; assay: disk diffusion assay, inhibition zone; settings: S. aureus; 4 mg/disk; soluble water compound 4
Protocol: as §1, §2, §3

[9] = tested on: Streptococcus mutans ATCC 35668; assay: disk diffusion assay, inhibition zone; settings: S. mutans
Protocol: as §1, §2, §3

[10] = tested on: Candid albicans ATCC 60193; assay: disk diffusion assay, inhibition zone; settings: C. albicans; 4 mg/disk; soluble water compound 4
Protocol: as §1, §2, §3

[11] = tested on: Candida parapsilosus ATCC 22019; assay: disk diffusion assay, inhibition zone; settings: C. parasilosus; 4 mg/disk; soluble water compound 4
Protocol: as §1, §2, §3

[12] = 4 mg/disk, soluble water compound 4

CCOC(=O)CSC(=S)SCC(=O)OCC [Compound 4, diethyl 2,2′-(thiocarbonylbis(sulfanediyl))diacetate]
biological activity as anticancer [1]: no biological activity | biological activity, in words [2]: very good | Inhibition zone diameter [2, 12]: 22.6 ± 0.5 C mm | Inhibition zone diameter [3]: 30.3 ± .5 B mm | Inhibition zone diameter [4]: 34.6 ± 0.5 A mm | Inhibition zone diameter [5]: 8.6 ± 0.5 F mm | Inhibition zone diameter [6]: 30 mm and 30 ± 1 B mm | Inhibition zone diameter (Fusarium sp.): 30 ± 1 B mm | Inhibition zone diameter [7]: 11.6 ± 0.5 E mm | Inhibition zone diameter [8]: 10.6 ± 0.5 F* mm | biological activity, in words [9]: very good | Inhibition zone diameter [9, 12]: 20 ± 1 D mm | Inhibition zone diameter [10]: 20 ± 1 D mm | Inhibition zone diameter [11]: 13 ± 1 E mm

Source: patent US9988348B1, “Synthesis and antimicrobial use of a trithiocarbonate derivative” (KING SAUD UNIVERSITY, priority 2017, dated 2018)
